pEC50: −log10 of the molar value.
The compounds below were run against human APJ receptor (Homo sapiens (Human), UniProt P35414) (assay: Intracellular cAMP accumulation assay (APJ hcAMP, HTRF)). Settings: HEK293 cells stably expressing human APJ receptor; inhibition of forskolin-mediated cAMP production; read-out: hAPJ cAMP EC50 (nM) Potency range.
Type: cell-based
Outline: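 cAMP inhibition was quantified by HTRF against a cAMP standard curve, with EC50 fitted to a variable-slope sigmoidal curve. Compounds acted on 5,000 APJ-stable HEK293 cells for 30 minutes at room temperature alongside 2 μM forskolin and […] IBMX. Detection reagents were incubated 60 min.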

human APJ receptor, sequence (P35414 whole entry): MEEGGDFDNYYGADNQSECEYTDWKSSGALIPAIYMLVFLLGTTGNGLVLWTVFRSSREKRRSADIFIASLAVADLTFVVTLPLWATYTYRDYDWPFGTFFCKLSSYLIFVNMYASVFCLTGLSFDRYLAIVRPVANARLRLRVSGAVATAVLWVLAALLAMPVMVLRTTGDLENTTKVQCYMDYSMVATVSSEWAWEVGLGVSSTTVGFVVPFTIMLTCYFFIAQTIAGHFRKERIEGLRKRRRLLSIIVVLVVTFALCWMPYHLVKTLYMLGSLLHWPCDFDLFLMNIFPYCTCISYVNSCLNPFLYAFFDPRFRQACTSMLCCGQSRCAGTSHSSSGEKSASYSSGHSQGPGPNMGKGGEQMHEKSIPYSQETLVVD

`CCCCc1nc(O)c(-c2nnc(CC(=O)Nc3cc(C)n[nH]3)o2)c(O)c1-c1c(OC)cccc1OC` [Example 263, 2-{5-[6-butyl-5-(2,6-dimethoxyphenyl)-2,4-dihydroxy-pyridin-3-yl]-1,3,4-oxadiazol-2-yl}-N-(3-methyl-1H-pyrazol-5-yl)acetamide] and `CCCCc1nc(O)c(-c2nnc(CNC(=O)c3ccccc3)o2)c(O)c1-c1cc(C(C)C)ccc1OC` [Example 247, N-[(5-{6-butyl-2,4-dihydroxy-5-[2-methoxy-5-(propan-2-yl)phenyl]pyridin-3-yl}-1,3,4-oxadiazol-2-yl)methyl] benzamide] fall in the same range of EC50: 0.01 to 10 nM for the first, 0.01 to 10 nM for the second.

`COc1cccc(OC)c1-c1c(C2CCCC2)nc(O)c(-c2nnc(Cc3ccc(Cl)cn3)o2)c1O` [Example 238, 3-{5-[(5-chloropyridin-2-yl)methyl]-1,3,4-oxadiazol-2-yl}-6-cyclopentyl-5-(2,6-dimethoxyphenyl) pyridine-2,4-diol] was tested, and the EC50 was 0.01 to 10 nM.

Same assay, conditions: HEK293 cells stably expressing human APJ receptor; inhibition of forskolin-mediated cAMP production; read-out: hAPJ cAMP EC50 Potency range

First: CCCCc1nc(O)c(-c2nnc(CNC(=O)CC(C)C)o2)c(O)c1-c1c(OC)cccc1OC [Example 174, N-({5-[6-butyl-5-(2,6-dimethoxyphenyl)-2,4-dihydroxypyridin-3-yl]-1,3,4-oxadiazol-2-yl}methyl)-3-methylbutanamide]
Second: CCCCc1nc(O)c(-c2nnc(Cc3cnn(C)c3)o2)c(O)c1-c1c(OC)cccc1OC [Example 102, 6-butyl-5-(2,6-dimethoxyphenyl)-3-{5-[(1-methyl-1H-pyrazol-4-yl)methyl]-1,3,4-oxadiazol-2-yl}pyridine-2,4-diol]
The pEC50 of the first is higher: 8.00 to 11.00 for the first, 6.52 to 7.00 for the second.

`CCCCc1nc(O)c(-c2nnc(Cc3nnc(Cc4ccccc4)o3)o2)c(O)c1-c1c(OC)cccc1OC` [Example 209, 3-{5-[(5-benzyl-1,3,4-oxadiazol-2-yl)methyl]-1,3,4-oxadiazol-2-yl}-6-butyl-5-(2,6-dimethoxyphenyl) pyridine-2,4-diol] and `CCCCc1nc(O)c(-c2nnc(Cc3nc(-c4ccccc4)no3)o2)c(O)c1-c1c(OC)cccc1OC` [Example 111, 6-butyl-5-(2,6-dimethoxyphenyl)-3-{5-[(3-phenyl-1,2,4-oxadiazol-5-yl)methyl]-1,3,4-oxadiazol-2-yl}pyridine-2,4-diol] fall in the same range of pEC50: 8.00 to 11.00 for the first, 8.00 to 11.00 for the second.

First: CCCCc1nc(O)c(-c2nnc(CN(C)C(=O)c3ccccc3)o2)c(O)c1-c1c(OC)cccc1OC [Example 172, N-({5-[6-butyl-5-(2,6-dimethoxyphenyl)-2,4-dihydroxypyridin-3-yl]-1,3,4-oxadiazol-2-yl}methyl)-N-methylbenzamide]
Second: CCCCc1nc(O)c(-c2nnc(Cc3ccccc3Cl)o2)c(O)c1-c1c(OC)cccc1OC [Example 5, 6-butyl-3-{5-[(2-chlorophenyl)methyl]-1,3,4-oxadiazol-2-yl}-5-(2,6-dimethoxyphenyl) pyridine-2,4-diol]
The pEC50 of the first is higher: 8.00 to 11.00 for the first, 7.00 to 8.00 for the second. The first is the more potent here.

`CCCCc1nc(O)c(-c2nnc(Cc3cncnc3)o2)c(O)c1-c1c(OC)cccc1OC` [Example 22, 6-butyl-5-(2,6-dimethoxyphenyl)-3-[5-(pyrimidin-5-ylmethyl)-1,3,4-oxadiazol-2-yl]pyridine-2,4-diol] and `CCCCc1nc(O)c(-c2nnc(CCc3ccc(Cl)c(Cl)c3)o2)c(O)c1-c1c(OC)cccc1OC` [Example 85, 6-butyl-3-{5-[2-(3,4-dichlorophenyl)ethyl]-1,3,4-oxadiazol-2-yl}-5-(2,6-dimethoxyphenyl) pyridine-2,4-diol] fall in the same range of pEC50: 7.00 to 8.00 for the first, 7.00 to 8.00 for the second.

Work on `CCCCc1[nH]c(=O)c(-c2nnc(Cc3csc(C)n3)o2)c(O)c1-c1cccc(CO)c1` [Example 152, 6-butyl-4-hydroxy-5-[3-(hydroxymethyl)phenyl]-3-{5-[(2-methyl-1,3-thiazol-4-yl)methyl]-1,3,4-oxadiazol-2-yl}-1,2-dihydropyridin-2-one] yielded a pEC50 of 7.00 to 8.00.

Source: patent publication US10336739B2, “4-hydroxy-3-(heteroaryl)pyridine-2-one APJ agonists” (BRISTOL-MYERS SQUIBB COMPANY, priority 2015, dated 2019)
